Assay results as given in publication PMC11434850, “Biosynthesis of Piceatannol from Resveratrol in Grapevine Can Be Mediated by Cresolase-Dependent Ortho-Hydroxylation Activity of Polyphenol Oxidase” (Plants, 2024).

System: T1, polyphenol oxidase (PPO), cresolase activity; most likely isoform XP_010647098.3
T1 construct: pooled fractions A7 and A8; immunoreactive bands 40, 52 and faint 70 kDa; proteolytic processing possible
Test: Michaelis-Menten / double reciprocal plot; piceatannol formation by LC-MS MRM
Assay type: biochemical, Vitis vinifera
Details: o-hydroxylation (cresolase) to piceatannol; O2, 1 mM ascorbate, 0.1 M potassium phosphate pH 7.5, room temperature, 90 min, 5 to 200 µM substrate; partially purified, mixture of A7 and A8 fractions

Km: 118 ± 49.8 µM
Compound: Oc1ccc(/C=C/c2cc(O)cc(O)c2)cc1 [trans-resveratrol, 3,4′,5-trihydroxy-trans-stilbene]
